Measured values: PubChem BioAssay AID2060897 (Molecular Pharmacology Branch, DTP, NCI, 2025)
Several values for one entry are separate records, joined by “and”; a condition that tells them apart may be missing. Equal values may be shown once. Blank lines part the entries; values can stand above or below the molecule they belong to.

Test system: 966289-007-R4-J1-PDC complex spheroid viability
Experiment: Anticancer human tumor 966289-007-R4-J1-PDC patient-derived pancreatic adenocarcinoma cell line growth inhibition [RAS]
Conditions: for viability, T/C: stronger effect = lower value
How it was run: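 Tumour cells grown as complex spheroids with HUVEC endothelial cells and mesenchymal stem cells, treated with RAS pathway inhibitor combinations. Each agent spans half-log steps from near clinical Cmax, or 10 microM where Cmax is unknown.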
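Note: spheroids exposed to agents for one week before readout.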
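Throughout, for viability, T/C: percent viability relative to DMSO vehicle control wells as 100%.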

- IC50 (curve of first compound, second compound 0.000949 µM): > 1000 nM
- IC50 (curve of first compound, second compound 0.003 µM): > 1000 nM
- IC50 (curve of first compound, second compound 0.00949 µM): > 1000 nM
- IC50 (curve of first compound, second compound 0.03 µM): > 1000 nM
- IC50 (curve of first compound, second compound 0.0949 µM): > 1000 nM
- IC50 (curve of first compound, second compound 0.3 µM): > 1000 nM
Compound: C=CC(=O)Nc1cc(Nc2nccc(-c3cn(C)c4ccccc34)n2)c(OC)cc1N(C)CCN(C)C + CCn1c(-c2cccnc2C(C)OC)c2c3cc(ccc31)N1CCOC(CC(NC(=O)C(C(C)C)N(C)C(=O)C3(F)CCN(C(=O)C#CC(C)(C)N(C)C)CC3)C(=O)N3CCCC(N3)C(=O)OCC(C)(C)C2)C1
- viability, T/C (second compound 0.000949 µM, first compound 0.00316 µM): 101%
- viability, T/C (second compound 0.000949 µM, first compound 0.01 µM): 101%
- viability, T/C (second compound 0.000949 µM, first compound 0.0316 µM): 99.9%
- viability, T/C (second compound 0.000949 µM, first compound 0.1 µM): 56.5%
- viability, T/C (second compound 0.000949 µM, first compound 0.316 µM): 77.5%
- viability, T/C (second compound 0.000949 µM, first compound 1 µM): 67.8%
- viability, T/C (second compound 0.003 µM, first compound 0.00316 µM): 106%
- viability, T/C (second compound 0.003 µM, first compound 0.01 µM): 84.3%
- viability, T/C (second compound 0.003 µM, first compound 0.0316 µM): 82.1%
- viability, T/C (second compound 0.003 µM, first compound 0.1 µM): 56.4%
- viability, T/C (second compound 0.003 µM, first compound 0.316 µM): 55.1%
- viability, T/C (second compound 0.003 µM, first compound 1 µM): 61.9%
- viability, T/C (second compound 0.00949 µM, first compound 0.00316 µM): 87%
- viability, T/C (second compound 0.00949 µM, first compound 0.01 µM): 97%
- viability, T/C (second compound 0.00949 µM, first compound 0.0316 µM): 90.8%
- viability, T/C (second compound 0.00949 µM, first compound 0.1 µM): 66.4%
- viability, T/C (second compound 0.00949 µM, first compound 0.316 µM): 78.5%
- viability, T/C (second compound 0.00949 µM, first compound 1 µM): 78.4%
- viability, T/C (second compound 0.03 µM, first compound 0.00316 µM): 65%
- viability, T/C (second compound 0.03 µM, first compound 0.01 µM): 90%
- viability, T/C (second compound 0.03 µM, first compound 0.0316 µM): 99.3%
- viability, T/C (second compound 0.03 µM, first compound 0.1 µM): 69.8%
- viability, T/C (second compound 0.03 µM, first compound 0.316 µM): 92.7%
- viability, T/C (second compound 0.03 µM, first compound 1 µM): 77.5%
- viability, T/C (second compound 0.0949 µM, first compound 0.00316 µM): 76.9%
- viability, T/C (second compound 0.0949 µM, first compound 0.01 µM): 93.5%
- viability, T/C (second compound 0.0949 µM, first compound 0.0316 µM): 117%
- viability, T/C (second compound 0.0949 µM, first compound 0.1 µM): 67.8%
- viability, T/C (second compound 0.0949 µM, first compound 0.316 µM): 113%
- viability, T/C (second compound 0.0949 µM, first compound 1 µM): 67.7%
- viability, T/C (second compound 0.3 µM, first compound 0.00316 µM): 81.5%
- viability, T/C (second compound 0.3 µM, first compound 0.01 µM): 107%
- viability, T/C (second compound 0.3 µM, first compound 0.0316 µM): 111%
- viability, T/C (second compound 0.3 µM, first compound 0.1 µM): 101%
- viability, T/C (second compound 0.3 µM, first compound 0.316 µM): 108%
- viability, T/C (second compound 0.3 µM, first compound 1 µM): 90.8%

- IC50 (curve of compound): 1.86 µM [middle of 4 runs]
Compound: CCC(CC)c1cc(NC2CCC(N)C2)n2nccc2n1 (configuration not stated)
- viability, T/C (compound 0.1 µM): 92.7% [middle of 4 runs]
- viability, T/C (compound 0.316 µM): 109% [middle of 4 runs]
- viability, T/C (compound 3.16 µM): 2.28% [middle of 4 runs]
- viability, T/C (compound 10 µM): 2.13% [middle of 4 runs]

- IC50 (curve of compound): > 10000 nM
Compound: NC1c2ccccc2OC12CCN(c1cnc3c(N4CCCc5ncccc54)n[nH]c3n1)CC2 (configuration not stated)
- viability, T/C (compound 0.1 µM): 92.9% [middle of 4 runs]
- viability, T/C (compound 0.316 µM): 107% [middle of 4 runs]
- viability, T/C (compound 1 µM): 116% and 63.2% and 101% (2×)
- viability, T/C (compound 10 µM): 99.6% [middle of 4 runs]
